Measurements as given in ChEMBL document CHEMBL4665648, “Potent and selective inhibitors of receptor-interacting protein kinase 1 that lack an aromatic back pocket group” (Bioorg Med Chem Lett, 2019).
≈ marks a conversion by molar mass, not a printed value.

Experiments:
[1] = biological target: Calcium/calmodulin-dependent protein kinase kinase 2 (Homo sapiens) (UniProt Q96RR4); test: Inhibition of tracer 236 binding to recombinant human GST-tagged full length CAMKK2 expressed in baculovirus expression system at 10 uM incubated for 60 mins by Lanthascreen assay relative to control
[2] = biological target: Tyrosine-protein kinase BTK (Homo sapiens) (UniProt Q06187); test: Inhibition of recombinant human His-tagged full length BTK expressed in baculovirus expression system using Tyr 01 as substrate at 10 uM incubated for 60 mins by Z'-Lyte assay relative to control
[3] = Oral bioavailability in Sprague-Dawley rat at 2 mg/kg; assay type: ADME, organism-based; settings: in vivo
[4] = Kinetic solubility of compound at pH 7.4; assay type: physicochemical; settings: buffer, read-out: Kinetic_solubility
[5] = biological target: Cyclin-dependent kinase 5/CDK5 activator 1 (Homo sapiens) (UniProt Q00535+Q15078); test: Inhibition of recombinant human His/GST-tagged full length CDK5/p25 expressed in baculovirus expression system using Ser/Thr 12 as substrate at 10 uM incubated for 60 mins by Z'-Lyte assay relative to control
[6] = biological target: Casein kinase II subunit alpha (Homo sapiens) (UniProt P68400); test: Inhibition of recombinant human His-tagged full length CK2alpha1 expressed in baculovirus expression system using Ser/Thr 1 as substrate at 10 uM incubated for 60 mins by Z'-Lyte assay relative to control
[7] = biological target: Dual specificity protein kinase CLK1 (Homo sapiens) (UniProt P49759); test: Inhibition of recombinant human GST-tagged CLK1 (129 to 484 residues) expressed in Escherichia coli expression system using Ser/Thr 09 as substrate at 10 uM incubated for 60 mins by Z'-Lyte assay relative to control
[8] = biological target: Macrophage colony-stimulating factor 1 receptor (Homo sapiens) (UniProt P07333); test: Inhibition of recombinant human His-tagged CSF1R (538 to 910 residues) expressed in baculovirus expression system using Tyr 01 as substrate at 10 uM incubated for 60 mins by Z'-Lyte assay relative to control
[9] = biological target: Calcium/calmodulin-dependent protein kinase type II subunit beta (Homo sapiens) (UniProt Q13554); test: Inhibition of recombinant human His-tagged full length CAMK2beta expressed in baculovirus expression system using Ser/Thr 04 as substrate at 10 uM incubated for 60 mins by Z'-Lyte assay relative to control
[10] = biological target: Death-associated protein kinase 1 (Homo sapiens) (UniProt P53355); test: Inhibition of recombinant human N-terminal GST-tagged DAPK1 (1 to 363 residues) expressed in baculovirus expression system using ZIPtide as substrate at 10 uM incubated for 60 mins by Adapta assay relative to control
[11] = biological target: Receptor tyrosine-protein kinase erbB-2 (Homo sapiens) (UniProt P04626); test: Inhibition of recombinant human His-tagged ERBB2 (676 to 1255 residues) expressed in baculovirus expression system using Tyr 06 as substrate at 10 uM incubated for 60 mins by Z'-Lyte assay relative to control
[12] = biological target: Fibroblast growth factor receptor 3 (Homo sapiens) (UniProt P22607); test: Inhibition of recombinant human His-tagged FGFR3 (399 to 806 residues) expressed in baculovirus expression system using Tyr 04 as substrate at 10 uM incubated for 60 mins by Z'-Lyte assay relative to control
[13] = biological target: Glycogen synthase kinase-3 alpha (Homo sapiens) (UniProt P49840); test: Inhibition of recombinant human GST-tagged full length GSK3alpha expressed in baculovirus expression system using Ser/Thr 09 as substrate at 10 uM incubated for 60 mins by Z'-Lyte assay relative to control
[14] = biological target: Tyrosine-protein kinase JAK3 (Homo sapiens) (UniProt P52333); test: Inhibition of recombinant human GST-tagged JAK3 (781 to 1124 residues) expressed in baculovirus expression system using Tyr 06 as substrate at 10 uM incubated for 60 mins by Z'-lyte assay relative to control
[15] = biological target: Tyrosine-protein kinase Lck (Homo sapiens) (UniProt P06239); test: Inhibition of recombinant human His-tagged full length LCK expressed in baculovirus expression system using Tyr 02 as substrate at 10 uM incubated for 60 mins by Z'-lyte assay relative to control
[16] = biological target: MAP kinase-activated protein kinase 2 (Homo sapiens) (UniProt P49137); test: Inhibition of recombinant human His-tagged full length MAPKAPK2 expressed in Escherichia coli expression system using Ser/Thr 04 as substrate at 10 uM incubated for 60 mins by Z'-lyte assay relative to control
[17] = biological target: MAP kinase-activated protein kinase 3 (Homo sapiens) (UniProt Q16644); test: Inhibition of recombinant human His-tagged full length MAPKAPK3 expressed in baculovirus expression system using Ser/Thr 04 as substrate at 10 uM incubated for 60 mins by Z'-lyte assay relative to control
[18] = biological target: Dual specificity mitogen-activated protein kinase kinase 1 (Homo sapiens) (UniProt Q02750); test: Inhibition of recombinant human His-tagged full length MEK1 expressed in baculovirus expression system using Ser/Thr 03 as substrate at 10 uM incubated for 60 mins by Z'-lyte assay relative to control
[19] = biological target: Protein kinase C eta type (Homo sapiens) (UniProt P24723); test: Inhibition of recombinant human His-tagged full length PKCeta expressed in baculovirus expression system using Ser/Thr 07 as substrate at 10 uM incubated for 60 mins by Z'-lyte assay relative to control
[20] = biological target: cAMP-dependent protein kinase catalytic subunit PRKX (Homo sapiens) (UniProt P51817); test: Inhibition of recombinant human GST-tagged full length PRKX expressed in baculovirus expression system using Ser/Thr 01 as substrate at 10 uM incubated for 60 mins by Z'-lyte assay relative to control
[21] = biological target: Ribosomal protein S6 kinase alpha-1 (Homo sapiens) (UniProt Q15418); test: Inhibition of recombinant human His-tagged full length RSK1 expressed in baculovirus expression system using Ser/Thr 06 as substrate at 10 uM incubated for 60 mins by Z'-Lyte assay relative to control
[22] = biological target: Angiopoietin-1 receptor (Homo sapiens) (UniProt Q02763); test: Inhibition of recombinant human GST-tagged TIE2 (817 to 1101 residues) expressed in baculovirus expression system using Ser/Thr 05 as substrate at 10 uM incubated for 60 mins by Z'-Lyte assay relative to control
[23] = biological target: Wee1-like protein kinase (Homo sapiens) (UniProt P30291); test: Inhibition of tracer 178 binding to recombinant human N-terminal GST-tagged full length WEE1 expressed in baculovirus expression system at 10 uM incubated for 60 mins by Lanthascreen assay relative to control
[24] = biological target: Eukaryotic elongation factor 2 kinase (Homo sapiens) (UniProt O00418); test: Inhibition of recombinant human GST-tagged full length EEF2K expressed in Escherichia coli expression system using Ser/Thr 24 as substrate at 10 uM incubated for 60 mins by Z'-Lyte assay relative to control
[25] = biological target: Mitogen-activated protein kinase 13 (Homo sapiens) (UniProt O15264); test: Inhibition of recombinant human His-tagged full length p38 delta expressed in baculovirus expression system using Ser/Thr 03 as substrate at 10 uM incubated for 60 mins by Z'-Lyte assay relative to control

Sequence of Death-associated protein kinase 1 (Homo sapiens) (P53355 whole entry, looked up, the tested form may be a part): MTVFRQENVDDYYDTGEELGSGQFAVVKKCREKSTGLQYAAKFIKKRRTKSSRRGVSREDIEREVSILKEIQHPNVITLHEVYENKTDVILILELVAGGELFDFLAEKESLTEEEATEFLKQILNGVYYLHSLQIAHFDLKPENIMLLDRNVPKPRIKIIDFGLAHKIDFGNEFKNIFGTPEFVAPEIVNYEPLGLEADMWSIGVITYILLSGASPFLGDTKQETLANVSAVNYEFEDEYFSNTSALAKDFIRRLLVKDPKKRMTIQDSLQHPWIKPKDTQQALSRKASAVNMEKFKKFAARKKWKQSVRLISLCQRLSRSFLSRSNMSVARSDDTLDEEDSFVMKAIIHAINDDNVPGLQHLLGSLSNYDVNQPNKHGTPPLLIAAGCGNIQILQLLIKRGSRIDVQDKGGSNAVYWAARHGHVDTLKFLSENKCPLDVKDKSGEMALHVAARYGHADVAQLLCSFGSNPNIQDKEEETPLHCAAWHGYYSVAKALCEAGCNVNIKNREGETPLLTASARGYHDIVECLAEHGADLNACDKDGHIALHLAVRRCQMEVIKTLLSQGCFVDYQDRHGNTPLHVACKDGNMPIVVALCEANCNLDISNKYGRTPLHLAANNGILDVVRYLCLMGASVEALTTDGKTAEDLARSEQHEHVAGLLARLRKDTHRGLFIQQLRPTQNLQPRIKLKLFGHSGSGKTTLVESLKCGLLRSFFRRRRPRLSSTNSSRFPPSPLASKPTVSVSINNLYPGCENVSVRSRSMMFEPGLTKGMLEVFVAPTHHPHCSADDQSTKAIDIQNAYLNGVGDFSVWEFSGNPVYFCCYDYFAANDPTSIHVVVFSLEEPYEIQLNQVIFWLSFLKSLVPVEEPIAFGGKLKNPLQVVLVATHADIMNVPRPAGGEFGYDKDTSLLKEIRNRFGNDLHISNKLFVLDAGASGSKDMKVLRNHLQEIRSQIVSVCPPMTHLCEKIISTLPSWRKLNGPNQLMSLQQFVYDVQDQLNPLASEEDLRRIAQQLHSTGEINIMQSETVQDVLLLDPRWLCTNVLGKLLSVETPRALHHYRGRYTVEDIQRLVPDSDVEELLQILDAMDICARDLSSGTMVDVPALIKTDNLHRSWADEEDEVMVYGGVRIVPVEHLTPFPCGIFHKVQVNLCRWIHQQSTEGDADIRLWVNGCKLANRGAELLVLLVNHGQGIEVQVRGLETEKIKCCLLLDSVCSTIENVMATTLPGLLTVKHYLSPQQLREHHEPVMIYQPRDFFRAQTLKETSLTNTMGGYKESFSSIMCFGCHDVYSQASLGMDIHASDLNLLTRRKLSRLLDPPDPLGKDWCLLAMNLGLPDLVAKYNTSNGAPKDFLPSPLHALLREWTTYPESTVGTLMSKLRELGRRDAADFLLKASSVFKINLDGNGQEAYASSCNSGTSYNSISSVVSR
Sequence of Ribosomal protein S6 kinase alpha-1 (Homo sapiens) (Q15418 whole entry, the tested form may be a part): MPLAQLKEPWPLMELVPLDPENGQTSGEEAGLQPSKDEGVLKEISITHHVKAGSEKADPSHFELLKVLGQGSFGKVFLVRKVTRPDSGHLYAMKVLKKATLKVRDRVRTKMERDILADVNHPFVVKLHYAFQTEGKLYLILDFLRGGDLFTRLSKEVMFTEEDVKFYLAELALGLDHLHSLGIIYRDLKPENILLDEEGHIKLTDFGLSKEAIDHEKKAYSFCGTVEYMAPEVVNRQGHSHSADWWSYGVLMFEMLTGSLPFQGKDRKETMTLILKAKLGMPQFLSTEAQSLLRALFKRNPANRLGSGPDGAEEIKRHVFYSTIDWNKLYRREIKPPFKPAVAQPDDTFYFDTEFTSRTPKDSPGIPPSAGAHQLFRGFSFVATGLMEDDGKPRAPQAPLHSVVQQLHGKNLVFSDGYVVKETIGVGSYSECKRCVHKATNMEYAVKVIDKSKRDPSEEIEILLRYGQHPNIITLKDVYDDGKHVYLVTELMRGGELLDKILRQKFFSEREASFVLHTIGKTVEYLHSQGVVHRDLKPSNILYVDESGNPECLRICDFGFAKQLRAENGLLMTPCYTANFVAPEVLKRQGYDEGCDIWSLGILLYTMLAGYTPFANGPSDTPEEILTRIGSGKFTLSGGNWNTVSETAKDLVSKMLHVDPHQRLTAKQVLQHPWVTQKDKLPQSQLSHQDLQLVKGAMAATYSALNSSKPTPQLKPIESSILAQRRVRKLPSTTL
Sequence of Glycogen synthase kinase-3 alpha (Homo sapiens) (P49840 whole entry, looked up, the tested form may be a part): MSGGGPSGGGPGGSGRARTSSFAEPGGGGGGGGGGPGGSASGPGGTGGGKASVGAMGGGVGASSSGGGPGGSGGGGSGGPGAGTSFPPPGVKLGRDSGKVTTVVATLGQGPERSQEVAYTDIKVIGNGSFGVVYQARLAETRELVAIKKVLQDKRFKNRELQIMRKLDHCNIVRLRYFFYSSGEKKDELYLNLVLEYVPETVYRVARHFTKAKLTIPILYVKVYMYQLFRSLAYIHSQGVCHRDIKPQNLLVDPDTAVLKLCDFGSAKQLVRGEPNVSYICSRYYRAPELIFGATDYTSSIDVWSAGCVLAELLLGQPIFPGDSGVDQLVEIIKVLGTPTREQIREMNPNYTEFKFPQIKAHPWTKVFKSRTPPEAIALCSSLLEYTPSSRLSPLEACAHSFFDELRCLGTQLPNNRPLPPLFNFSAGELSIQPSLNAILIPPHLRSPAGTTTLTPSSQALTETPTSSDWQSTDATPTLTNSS
Sequence of Protein kinase C eta type (Homo sapiens) (P24723 whole entry): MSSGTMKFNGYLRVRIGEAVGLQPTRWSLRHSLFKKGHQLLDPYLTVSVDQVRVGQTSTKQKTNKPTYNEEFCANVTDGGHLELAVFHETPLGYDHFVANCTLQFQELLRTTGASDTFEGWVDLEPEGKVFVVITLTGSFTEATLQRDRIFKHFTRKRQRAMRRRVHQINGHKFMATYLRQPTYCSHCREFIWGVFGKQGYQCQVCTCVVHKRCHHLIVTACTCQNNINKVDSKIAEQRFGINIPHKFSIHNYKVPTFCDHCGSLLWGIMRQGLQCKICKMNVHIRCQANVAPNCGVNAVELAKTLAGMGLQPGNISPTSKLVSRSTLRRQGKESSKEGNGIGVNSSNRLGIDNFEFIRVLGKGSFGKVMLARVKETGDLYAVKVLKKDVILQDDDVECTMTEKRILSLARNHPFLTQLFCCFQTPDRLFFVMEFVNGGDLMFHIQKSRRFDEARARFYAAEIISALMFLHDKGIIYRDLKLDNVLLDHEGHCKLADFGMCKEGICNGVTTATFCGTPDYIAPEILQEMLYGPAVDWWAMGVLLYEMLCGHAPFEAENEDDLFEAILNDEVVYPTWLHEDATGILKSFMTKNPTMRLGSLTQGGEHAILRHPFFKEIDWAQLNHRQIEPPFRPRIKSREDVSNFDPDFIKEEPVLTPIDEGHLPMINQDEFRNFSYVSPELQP
Sequence of Tyrosine-protein kinase JAK3 (Homo sapiens) (P52333 whole entry, the tested form may be a part): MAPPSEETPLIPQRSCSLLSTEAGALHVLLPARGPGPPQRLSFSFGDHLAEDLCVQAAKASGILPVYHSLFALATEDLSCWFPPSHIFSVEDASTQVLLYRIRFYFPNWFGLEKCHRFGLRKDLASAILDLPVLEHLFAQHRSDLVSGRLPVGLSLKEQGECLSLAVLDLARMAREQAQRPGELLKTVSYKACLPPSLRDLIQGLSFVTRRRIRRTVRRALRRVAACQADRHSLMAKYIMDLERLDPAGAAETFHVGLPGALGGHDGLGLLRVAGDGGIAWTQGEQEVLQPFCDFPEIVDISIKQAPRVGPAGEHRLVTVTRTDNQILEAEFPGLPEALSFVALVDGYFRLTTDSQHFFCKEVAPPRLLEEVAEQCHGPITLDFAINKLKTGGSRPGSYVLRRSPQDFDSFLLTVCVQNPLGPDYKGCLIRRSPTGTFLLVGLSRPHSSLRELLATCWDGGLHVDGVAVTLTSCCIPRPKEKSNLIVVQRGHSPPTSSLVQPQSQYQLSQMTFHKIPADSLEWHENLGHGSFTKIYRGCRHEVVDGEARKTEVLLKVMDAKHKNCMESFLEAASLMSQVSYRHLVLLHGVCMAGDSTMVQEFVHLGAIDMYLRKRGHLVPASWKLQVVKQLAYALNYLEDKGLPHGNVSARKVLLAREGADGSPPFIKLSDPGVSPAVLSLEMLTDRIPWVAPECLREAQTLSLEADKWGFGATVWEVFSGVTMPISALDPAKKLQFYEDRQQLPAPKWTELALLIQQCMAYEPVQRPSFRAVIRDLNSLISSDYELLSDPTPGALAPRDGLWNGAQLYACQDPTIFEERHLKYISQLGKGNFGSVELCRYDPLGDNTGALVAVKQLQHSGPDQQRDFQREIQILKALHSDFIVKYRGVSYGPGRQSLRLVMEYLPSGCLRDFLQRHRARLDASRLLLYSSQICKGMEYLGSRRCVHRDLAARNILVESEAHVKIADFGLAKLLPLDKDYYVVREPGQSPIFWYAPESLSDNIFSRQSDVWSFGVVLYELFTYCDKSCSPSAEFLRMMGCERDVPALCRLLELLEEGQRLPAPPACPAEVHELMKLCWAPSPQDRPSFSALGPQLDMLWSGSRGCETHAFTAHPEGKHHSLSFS
Sequence of Casein kinase II subunit alpha (Homo sapiens) (P68400 whole entry, looked up, the tested form may be a part): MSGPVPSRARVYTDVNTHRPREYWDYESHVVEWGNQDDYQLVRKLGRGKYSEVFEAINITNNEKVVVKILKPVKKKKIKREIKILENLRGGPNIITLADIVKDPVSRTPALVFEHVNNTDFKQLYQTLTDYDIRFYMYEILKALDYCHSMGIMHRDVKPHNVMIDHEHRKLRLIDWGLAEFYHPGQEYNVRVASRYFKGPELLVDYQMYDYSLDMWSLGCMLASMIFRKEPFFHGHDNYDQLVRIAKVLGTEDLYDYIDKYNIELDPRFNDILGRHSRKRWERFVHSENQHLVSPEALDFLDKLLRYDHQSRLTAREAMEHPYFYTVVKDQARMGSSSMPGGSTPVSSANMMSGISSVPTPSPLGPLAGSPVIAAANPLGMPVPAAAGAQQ

## CN1C(=O)[C@@H](NC(=O)c2n[nH]c3ncc(C(F)(F)C(F)(F)F)cc23)COc2ccccc21
[1]
  inhibition: 2%
[2]
  inhibition: -2%
[3]
  bioavailability: 63%
[4]
  solubility kinetic: 17 µM (≈ 7.74 µg/mL)
[5]
  inhibition: 14.5%
[6]
  inhibition: 4.5%
[7]
  inhibition: 3.5%
[8]
  inhibition: 15%
[9]
  inhibition: -1%
[10]
  inhibition: 0.5%
[11]
  inhibition: 2%
[12]
  inhibition: 0.5%
[13]
  inhibition: 9%
[14]
  inhibition: 1.5%
[15]
  inhibition: -0.5%
[16]
  inhibition: 4%
[17]
  inhibition: 0.5%
[18]
  inhibition: -6.5%
[19]
  inhibition: 5%
[20]
  inhibition: 4.5%
[21]
  inhibition: 8%
[22]
  inhibition: 8.5%
[23]
  inhibition: 4%
[24]
  inhibition: 6%
[25]
  inhibition: 5.5%
